Data on 2 compounds can be found in US20250170097A1, “CATHEPSIN INHIBITORS AND USE THEREOF IN A METHOD FOR DETECTING AND TREATING RESISTANCE TO IMMUNOTHERAPY” (YISSUM RESEARCH DEVELOPMENT COMPANY OF THE HEBREW …, priority 2022, published 2025).

The term IC50 denotes the concentration that inhibits the measured activity by half. Lower therefore signals higher potency.

Series [1] concerns the target Recombinant cathepsin B (rCatB) (Homo sapiens, UniProt P07858). Kind of series: Competitive inhibition of recombinant cathepsin B, residual activity labeled with GB123, SDS PAGE. The format is biochemical. As to conditions: fluorescent SDS-PAGE, FIG. 8C. As to the method: (§1) Recombinant cathepsin B and L (rCatB and rCatL, respectively) were incubated for 45 minutes at 37° C. with 1 μl of increasing concentrations of cathepsin inhibitors (GB111-NH2 or MGB, respectively), residual cathepsin activity was labeled by addition of 1 μM of GB123 fluorescent activity-based probe for 45 minutes at 37° C., sample buffer was added for 2 min and the sample was boiled at 100° C. for 2 minutes. Equal amount of each sample was separated by a 12.5% SDS PAGE, this experiment was repeated 3 times. The gel was scanned for fluorescence by a Typhoon scanner. The bands were quantified by ImageJ software and then IC50 curves were generated from triplicate experiment by Prism-GraphPad software.

Series [2] has as its target Recombinant cathepsin L (rCatL) (Homo sapiens, UniProt P07711). Kind of series: Competitive inhibition of recombinant cathepsin L, residual activity labeled with GB123, SDS PAGE. The format is biochemical. As to conditions: fluorescent SDS-PAGE, FIG. 8C. As to the method:
as §1

For series [3], the system named is endogenous cathepsin activity (cathepsin L/B) in lung cancer A549 cells. In words: Cathepsin inhibition in intact A549 cells, residual activity labeled with GB123. The format is cell-based. As to conditions: for IC50: 1 hour at 37° C., FIG. 9B. How it is done: The ability of MGB to penetrate cells and inhibit endogenous cathepsin activity was tested in lung cancer A549 cells. This model (lung cells) was chosen since corona virus is known to infect the respiratory system. Intact cells were treated with inhibitors and the residual activity was determined by GB123. Inhibition was detected on SDS-PAGE Potent inhibitors reduce the residual activity and as a result, a reduction in fluorescently labeled cathepsins is seen (FIG. 9A). The cathepsin activity was quantification and IC50 curves were plotted.

The test system of series [4] is endogenous cathepsin activity. In words: Endogenous inhibition of cathepsin activity, ACE2-ab-MGB compared to MGB (FIG. 10). The format is cell-based. As to conditions: FIG. 10A-10B.
Method: 2.5*10^5 cells per well (A549, U87 or HepG2), were seeded in 6 well plates one day before incubation with indicated concentrations of inhibitors (GB111-NH2 or MGB, respectively) for 1 hour at 37° C. Residual cathepsin activity was labeled by the addition of 2 μM of GB123 for 2 hours at 37° C. Sample buffer was added and samples were boiled at 100° C. for 10 min. Equal protein amounts of each sample were resolved by a 12.5% SDS PAGE. a) Gels were scanned for fluorescence by a Typhoon scanner. b) The gel bands were quantified using ImageJ software and IC50 curves were generated from triplicate experiments using Prism-GraphPad software.
For series [5], the system named is A549, HepG2, U87, and Hacat cells. Kind of series: Cell viability assay (methylene blue, 72 hours). The format is cell-based. As to the method: The cells were incubated with compounds at indicated concentrations for 72 hours at 37° C. and then fixed by 2.5% glutaraldehyde for 1 hour at room temperature and stained with methylene blue. Growth was compared to vehicle-treated cells designated as 100%.

In series [6] the test system is B16-F10 tumors. In words: Resistant B16-F10 melanoma tumor-bearing mice. The format is in vivo. As to conditions: combination of GB111-NH2 (30 mg/kg) and anti PD-1 (100 μg/dose), every 4 days from day 5. How it is done: A sensitive IT treatment model, D4M tumors and, a more resistant model, IT B16-F10 tumor Cells were injected subcutaneously (SC) to the back of the mice and their growth was measured continuously by caliper. Anti PD-1 was administered intra peritoneally (IP) twice, a few days after the tumor could be palpated, and on indicated days and doses as described in the methods, changes in tumor volume were measured during the experiment (FIG. 4A).
To determine the cathepsin activity in both models, one day prior to sacrifice, GB123 (a fluorescent cathepsin activity-based probe) was administered IV, and tumors were harvested for further biochemical examination. Tumor tissue was subjected to fluorescence-activated cell sorting (FACS) analysis to determine the percentage of tumor associated macrophages (TAMs) that express high cathepsin activity.
The effect of the inhibition of cathepsin activity on the resistance to IT was examined using the resistant B16-F10 tumor-bearing mice with IT (anti-PD-1), GB111-NH2 (cathepsin inhibitor), or their combinations. The B16-F10 tumor-bearing mice were treated every 4 days, starting on day 5 after cell inoculation with anti PD-1 (100 μg/dose), GB111-NH2 (30 mg/kg) or their combinations; IT was given a day before GB111-NH2 (a group of GB111-NH2 first and IT a day later was included). […] In addition, survival plots were generated (FIG. 6B).

The test system of series [7] is cathepsins B, L and S. In words: Cathepsin activity in lysates of patients' cells and hematological malignancy cell lines, GB123 labeling. The format is cell-based, human. How it is done: Cell lysates from hematological malignancies patients were pretreated with vehicle, or a cathepsin inhibitor GB111-NH2 for 0.5 hour, then labeled by addition of 1 μmol/L GB123 probe for 1 hour. Equal amounts of protein were separated and visualized by scanning of the gel with a Typhoon flatbed laser scanner. Each lane was taken from a different patient. MZL-Marginal zone lymphoma, CLL-chronic lymphocytic leukemia, DLBCL-Diffuse large B-cell lymphoma.
Crude detergent lysates from cells that were pretreated with either cathepsin inhibitor GB111-NH2 or with control DMSO; vehicle for 20 minutes and then labeled by addition of 1 μmol/L GB123 probe for 1 hour. Equal amounts of protein (see Coomassie) were separated and visualized by scanning of the gel with a Typhoon flatbed laser scanner.
To verify activity dependent labeling, indicated samples were pre-incubated with GB111-NH2, a potent cathepsin inhibitor, prior to GB123 labeling. After incubation with GB123, a fluorescent scan of SDS-PAGE was done. Cathepsin activity was detected in lysates of cells from human Chronic lymphocytic leukemia (CLL) and Diffuse large B-cell lymphoma (DLBCL) patients as well as healthy population (FIG. 13).

Series [8] has as its system OCI-Ly19 DLBCL cells. In words: Lymphoma cell death assay (caspase-3 activation, annexin V staining). It is filed as cell-based. How it is done:
OCI-Ly19 DLBCL cells were treated with GB111-NH2 for 1 hour and the cells were evaluated for caspase-3 activation and annexin V staining as indications for apoptosis.
Caspase-3 activation was assessed through the evaluation of caspase-3 enzyme activity (100 ng of protein) with the substrate Ac-DEVD-pNA (N-acetyl-Asp-Glu-Val-Asp-p-nitroaniline) in a colorimetric assay 24 hours post treatment.

Series [9] relates to blood cells isolated from peripheral blood and bone marrow of CLL patients. Kind of series: Annexin V staining and cathepsin S activity in blood cells of CLL patients. The format is cell-based, human. How it is done:
FIGS. 14A-14D are bar graphs and images presenting the inhibition of cathepsins induces apoptosis in OCI-Ly19 cells. (14A) Caspase-3 activation; (14B) FACS analysis of stained cells with anti-Annexin V; (14C) Mononuclear cells from CLL patients were isolated by FICOL, treated with 5 uM GB111-NH2 for 1 hour and stained with anti-Annexin V; and (14D) labeled crude detergent lysates.
The ability of GB111-NH2 to promote lymphoma cell death was examined. […] Cathepsin S activity in these cells was initially high and was reduced to 40% (+10%).

Series [10] has as its system NF-κB reporter in OCI-Ly19 cells. Kind of series: NF-κB signaling assay (luciferase reporter). The format is cell-based. As to conditions: 5 μM, 0.5 μg LPS, 24 h induction; potent as SC-514. How it is done: Cells were transfected by electroporation with NF-κB reporter plasmid. After selection, the cells were harvested, and the luciferase activities were measured and normalized. 5 μM GB111-NH2 inhibited activity of NF-κB reporter in OCI-Ly 19 cells induced by 0.5 μg LPS (24 h induction). 10 μM SC-514, a specific suppressor of NF-κB activity, was used as positive control.

Series [11] deals with CD74 in OCI-Ly3 and OCI-Ly19. Kind of series: CD74 expression by Western blot and FACS. The format is cell-based. An excerpt:
The CD74 expression was examined by Western blot (WB) and FACS in OCI-Ly3 and OCI-Ly19 treated with GB111-NH2, LPS or LPS pretreated with GB111-NH2.
Background: Immunoblotting shows a protein as a band on a membrane.

Recombinant cathepsin L (rCatL), sequence (P07711 114-333, species assumed): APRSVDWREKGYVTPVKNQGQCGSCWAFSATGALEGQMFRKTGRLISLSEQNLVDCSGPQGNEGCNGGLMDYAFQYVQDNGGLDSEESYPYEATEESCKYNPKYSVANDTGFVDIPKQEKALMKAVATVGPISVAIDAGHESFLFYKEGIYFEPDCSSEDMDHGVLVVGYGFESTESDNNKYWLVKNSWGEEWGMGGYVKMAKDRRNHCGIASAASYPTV

`Cc1cccc(C)c1C(=O)OCC(=O)[C@H](CCCCN)NC(=O)[C@H](Cc1ccccc1)NC(=O)[C@H](Cc1ccccc1)NC(=O)CCCCCN1C(=O)C=CC1=O` [MGB]: the “inhibition of rCatB” value in series [1] is “inhibits”. The “inhibition of rCatL” value in series [2] is reported as “inhibits”. Further, the IC50 is 1.9 µM in series [3] and 1.7 ± 0.6 µM in series [4]. Also, the cell viability entry in series [5] (even at a concentration of 5 μM) was “safe to cells”.
With `Cc1cccc(C)c1C(=O)OCC(=O)[C@H](CCCCN)NC(=O)[C@H](Cc1ccccc1)NC(=O)OCc1ccccc1` [GB111-NH2], in series [3], the “potency relative to MGB” value is “over 200 fold” and the IC50 turned out to be 0.006 µM. In [5] (even at low concentrations as 1 μM), the cell viability entry is “reduced cell viability significantly”. In addition, the Tumor volume result in [6] is on record as “significantly smaller tumors”. Besides, the “cathepsin activity in OCI-Ly19 cells” value in series [7] (NF-κB reporter cells treated with LPS) is “blocked cathepsin activity”. Besides, the cathepsins activity result in [7] (patients' cells and lymphoma cell lines, pretreatment before GB123 labeling) is on record as “abolished cathepsins activity”. In addition, in series [8] (OCI-Ly19, 24 hours post treatment), the “increase in caspase-3 activity” value amounted to 4.5 fold. Also, in series [8] (OCI-Ly19, treated for 1 hour), the “increase in Annexin V staining” value stood at 2.5 fold. Also, the “Annexin V staining” value in series [9] (5 uM for 1 hour, p value 0.016) is “increased Annexin V staining”. For the same compound, in series [9] (CLL patients' cells), the “Cathepsin S activity, reduced to” value was determined as 40%. Further, the “LPS-induced NF-κB transcriptional activity” value in [10] is recorded as “suppressed LPS-induced NF-κB transcriptional activity”. Besides, the “surface expression of CD74 (FACS)” value in [11] is “reduces the surface expression of CD74”.
